Experimental data reported in PubChem BioAssay (NCI).
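Five concentrations, 48 hours, 96-well plates. Here, GI50 denotes the concentration required for 50% inhibition of growth. TGI is the concentration that stops growth completely.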

Experiments:
Test in all cases: inhibition of tumour cell growth, NCI panel, 48 h
HCT-116 colon = system: HCT-116 colon
SR leukemia = system: SR leukemia
UACC-257 melanoma = system: UACC-257 melanoma
CCRF-CEM leukemia = system: CCRF-CEM leukemia
UO-31 renal = system: UO-31 renal
UACC-62 melanoma = system: UACC-62 melanoma
SF-539 CNS = system: SF-539 CNS
OVCAR-4 ovarian = system: OVCAR-4 ovarian
RXF 393 renal = system: RXF 393 renal
MALME-3M melanoma = system: MALME-3M melanoma

## Cc1ccc(C)c2sc3cc(=O)ccc-3nc12
HCT-116 colon
  TGI: > 100 µM
SR leukemia
  TGI: > 100 µM
UACC-257 melanoma
  TGI: > 100 µM
CCRF-CEM leukemia
  TGI: 70.3 µM
UO-31 renal
  TGI: > 100 µM
UACC-62 melanoma
  TGI: 33.6 µM
SF-539 CNS
  TGI: > 100 µM
OVCAR-4 ovarian
  TGI: 48.1 µM

## CC(=O)OCC1OC(O[C@@H]2C[C@H]3C(C)(C)[C@H](OC(C)=O)CC[C@]3(C)[C@H]3CC[C@@H]4[C@]5(CC[C@@]4(C)[C@@]32C)O[C@@H]([C@H](O)C(C)(C)O)C[C@@H]5C)C(O)C(O)C1O (stereo partly specified)
HCT-116 colon
  GI50: 3.81 µM
  TGI: 15.1 µM
SR leukemia
  GI50: 3.08 µM
  TGI: 12.9 µM
UACC-257 melanoma
  GI50: 11.4 µM
  TGI: 24 µM
RXF 393 renal
  TGI: 16.1 µM
CCRF-CEM leukemia
  GI50: 3.16 µM
  TGI: 20 µM
UO-31 renal
  GI50: 7.85 µM
  TGI: 20.8 µM
UACC-62 melanoma
  GI50: 6.36 µM
  TGI: 19.7 µM
OVCAR-4 ovarian
  GI50: 3.35 µM
  TGI: 16.4 µM
MALME-3M melanoma
  GI50: 10.3 µM
  TGI: 22.4 µM

## CC(C)(C)c1ccc(C(O)(c2ccc(C(C)(C)C)cc2)c2ccc(C(C)(C)C)cc2)cc1
HCT-116 colon
  TGI: > 100 µM
SR leukemia
  TGI: > 100 µM
CCRF-CEM leukemia
  TGI: > 100 µM
UO-31 renal
  TGI: > 100 µM
UACC-62 melanoma
  TGI: > 100 µM
SF-539 CNS
  TGI: > 100 µM
OVCAR-4 ovarian
  TGI: > 100 µM
MALME-3M melanoma
  TGI: > 100 µM

## NC(=O)c1ccc(NC(=O)c2oc3ccccc3c2-c2cnn(-c3ccccc3)c2)cc1
SR leukemia
  GI50: > 100 µM
  TGI: > 100 µM
UACC-257 melanoma
  GI50: > 100 µM
  TGI: > 100 µM
RXF 393 renal
  GI50: 1.33 µM
  TGI: 6.03 µM
CCRF-CEM leukemia
  TGI: > 23.2 µM
UO-31 renal
  GI50: > 100 µM
  TGI: > 100 µM
SF-539 CNS
  GI50: > 100 µM
  TGI: > 100 µM
MALME-3M melanoma
  GI50: > 100 µM
  TGI: > 100 µM

## C/C(=N\n1c(N)c(C#N)c(-c2ccc(Cl)cc2)c(C#N)c1=O)c1cccnc1
HCT-116 colon
  GI50: > 100 µM
  TGI: > 100 µM
SR leukemia
  GI50: > 100 µM
  TGI: > 100 µM
UACC-257 melanoma
  GI50: > 100 µM
  TGI: > 100 µM
CCRF-CEM leukemia
  GI50: > 100 µM
  TGI: > 100 µM
UO-31 renal
  GI50: > 100 µM
  TGI: > 100 µM
UACC-62 melanoma
  GI50: > 100 µM
  TGI: > 100 µM
OVCAR-4 ovarian
  GI50: > 100 µM
  TGI: > 100 µM
MALME-3M melanoma
  GI50: > 100 µM
  TGI: > 100 µM

## COc1ccccc1OCC(O)CO (stereo unspecified)
HCT-116 colon
  GI50: > 100 µM
  TGI: > 100 µM
SR leukemia
  GI50: > 100 µM
  TGI: > 100 µM
UACC-257 melanoma
  GI50: > 100 µM
  TGI: > 100 µM
RXF 393 renal
  GI50: > 100 µM
  TGI: > 100 µM
UO-31 renal
  GI50: > 100 µM
  TGI: > 100 µM
UACC-62 melanoma
  GI50: > 100 µM
  TGI: > 100 µM
SF-539 CNS
  GI50: > 100 µM
  TGI: > 100 µM
OVCAR-4 ovarian
  GI50: > 100 µM
  TGI: > 100 µM
MALME-3M melanoma
  GI50: > 100 µM
  TGI: > 100 µM

## NC(=O)Cn1c(=O)[nH]c(=O)c2[nH]cnc21
HCT-116 colon
  TGI: > 100 µM
SR leukemia
  TGI: > 100 µM
UACC-257 melanoma
  TGI: > 100 µM
RXF 393 renal
  TGI: > 100 µM
CCRF-CEM leukemia
  TGI: > 100 µM
UO-31 renal
  TGI: > 100 µM
UACC-62 melanoma
  TGI: > 100 µM
SF-539 CNS
  TGI: > 100 µM
MALME-3M melanoma
  TGI: > 100 µM

## COc1ccc(C2CC(C)=Nc3c([nH]c(=S)[nH]c3=O)N2)cc1 (stereo unspecified)
HCT-116 colon
  TGI: 30.1 µM
SR leukemia
  TGI: 65 µM
UACC-257 melanoma
  TGI: 33.9 µM
RXF 393 renal
  TGI: 34.7 µM
CCRF-CEM leukemia
  TGI: 54.4 µM
UO-31 renal
  TGI: 32.8 µM
UACC-62 melanoma
  TGI: 32.1 µM
SF-539 CNS
  TGI: 50.8 µM
MALME-3M melanoma
  TGI: > 100 µM

## O=C1CCC(c2ccccc2)(c2ccccc2)CC1
HCT-116 colon
  TGI: > 100 µM
SR leukemia
  TGI: > 100 µM
UACC-257 melanoma
  TGI: > 100 µM
RXF 393 renal
  TGI: > 100 µM
CCRF-CEM leukemia
  TGI: 52 µM
UO-31 renal
  TGI: > 100 µM
UACC-62 melanoma
  TGI: > 100 µM
OVCAR-4 ovarian
  TGI: > 100 µM
MALME-3M melanoma
  TGI: > 100 µM

## COc1ccccc1OCC(COC(=O)Nc1ccc(C)cc1)OC(=O)Nc1ccc(C)cc1 (stereo unspecified)
HCT-116 colon
  TGI: 31.3 µM
SR leukemia
  TGI: 59.6 µM
UACC-257 melanoma
  TGI: 49.7 µM
RXF 393 renal
  TGI: 20.2 µM
CCRF-CEM leukemia
  TGI: 45.3 µM
UO-31 renal
  TGI: 34.3 µM
UACC-62 melanoma
  TGI: 30.6 µM
SF-539 CNS
  TGI: 37.7 µM
MALME-3M melanoma
  TGI: 48.3 µM

## C[P+](C)(CC(F)(F)F)c1ccccc1
HCT-116 colon
  TGI: > 100 µM
SR leukemia
  TGI: > 100 µM
UACC-257 melanoma
  TGI: > 100 µM
RXF 393 renal
  TGI: > 100 µM
CCRF-CEM leukemia
  TGI: > 100 µM
UO-31 renal
  TGI: > 100 µM
UACC-62 melanoma
  TGI: > 100 µM
SF-539 CNS
  TGI: > 100 µM
MALME-3M melanoma
  TGI: > 100 µM

## CCCC/C(C)=N/NC(N)=S
HCT-116 colon
  TGI: > 100 µM
SR leukemia
  TGI: > 100 µM
UACC-257 melanoma
  TGI: > 100 µM
RXF 393 renal
  TGI: > 100 µM
CCRF-CEM leukemia
  TGI: > 100 µM
UO-31 renal
  TGI: > 100 µM
UACC-62 melanoma
  TGI: > 100 µM
SF-539 CNS
  TGI: > 100 µM
MALME-3M melanoma
  TGI: > 100 µM

## COc1cc(SC)ccc1C(=O)N1CCCC(C)C1 (stereo unspecified)
HCT-116 colon
  GI50: > 100 µM
  TGI: > 100 µM
SR leukemia
  GI50: > 100 µM
  TGI: > 100 µM
UACC-257 melanoma
  GI50: 78.9 µM
  TGI: > 100 µM
CCRF-CEM leukemia
  GI50: > 100 µM
  TGI: > 100 µM
UO-31 renal
  GI50: > 100 µM
  TGI: > 100 µM
UACC-62 melanoma
  GI50: > 100 µM
  TGI: > 100 µM
SF-539 CNS
  GI50: > 100 µM
  TGI: > 100 µM
OVCAR-4 ovarian
  GI50: 58.6 µM
  TGI: > 100 µM
MALME-3M melanoma
  GI50: > 100 µM
  TGI: > 100 µM

## CCn1c(-c2cc3ccccc3cc2OC(=O)c2ccccc2)n[nH]c1=S
HCT-116 colon
  GI50: 43.1 µM
  TGI: > 50 µM
SR leukemia
  GI50: 19.8 µM
  TGI: > 50 µM
UACC-257 melanoma
  GI50: > 50 µM
  TGI: > 50 µM
RXF 393 renal
  GI50: > 50 µM
  TGI: > 50 µM
UO-31 renal
  GI50: 21.1 µM
  TGI: > 50 µM
UACC-62 melanoma
  GI50: 28.8 µM
  TGI: > 50 µM
SF-539 CNS
  GI50: > 50 µM
  TGI: > 50 µM
OVCAR-4 ovarian
  GI50: > 50 µM
  TGI: > 50 µM
MALME-3M melanoma
  GI50: > 50 µM
  TGI: > 50 µM

## COCCn1cc(-c2csc(-c3c[nH]c4ccc(F)cc34)n2)c2cccnc21
HCT-116 colon
  GI50: 3.77 µM
  TGI: > 100 µM
SR leukemia
  GI50: 3.24 µM
  TGI: > 100 µM
RXF 393 renal
  GI50: 5.91 µM
  TGI: > 100 µM
UO-31 renal
  GI50: 4.41 µM
  TGI: > 100 µM
UACC-62 melanoma
  GI50: 6.78 µM
  TGI: > 100 µM
SF-539 CNS
  GI50: 8.86 µM
  TGI: > 100 µM
OVCAR-4 ovarian
  GI50: 2.59 µM
  TGI: > 100 µM
MALME-3M melanoma
  GI50: 4.54 µM
  TGI: > 100 µM
